Earlier results as cited in US20210315248A1, “SYSTEM AND METHOD FOR HOVENIA DULCIS EXTRACTION” (82 Labs Inc., priority 2020, published 2021).

Legend:
[1] = design: key: ability to form inclusion complexes, as indicated by a “+”; details: guest molecule with α-cyclodextrin
[2] = design: key: ability to form inclusion complexes, as indicated by a “+”; details: guest molecule with γ-cyclodextrin
[3] = design: key: ability to form inclusion complexes, as indicated by a “+”; details: guest molecule with β-cyclodextrin
[4] = not given; remark: listed apart in the source

ability to form inclusion complexes with α-CD [1]	ability to form inclusion complexes with γ-CD [2]	ability to form inclusion complexes with β-CD [3]	Structure (SMILES)	further results
+			CCC(=O)O [Propionic acid]	
	+		c1ccc2cc3ccccc3cc2c1 [Anthracene]	
	+	+	c1ccc2ccccc2c1 [Naphthalene]	

Further lines, the molecule ahead of its results:

Structure (SMILES)	ability to form inclusion complexes with α-CD [1]	ability to form inclusion complexes with γ-CD [2]	ability to form inclusion complexes with β-CD [3]	further results
O=C1c2c(O)cc(O)cc2O[C@H](c2cc(O)c(O)c(O)c2)[C@H]1O [DHM, (2R,3R)-3,5,7-trihydroxy-2-(3,4,5-trihydroxyphenyl)-2,3-dihydrochromen-4-one]				permeability Peff: (1.84±0.37)×10^−6 cm/s
C1CCCCC1 [Cyclohexane]	+	+	+	
[Xe] [Xenon]	+			
OC[C@H]1O[C@@H]2O[C@H]3[C@H](O)[C@@H](O)[C@@H](O[C@H]4[C@H](O)[C@@H](O)[C@@H](O[C@H]5[C@H](O)[C@@H](O)[C@@H](O[C@H]6[C@H](O)[C@@H](O)[C@@H](O[C@H]7[C@H](O)[C@@H](O)[C@@H](O[C@H]1[C@H](O)[C@H]2O)O[C@@H]7CO)O[C@@H]6CO)O[C@@H]5CO)O[C@@H]4CO)O[C@@H]3CO [α-Cyclodextrin, α-cyclodextrin]				pKa value (25° C.) [4]: 12.331
CCCC(=O)O [Butyric acid]	+		+	
